Among the data in PubChem BioAssay (NCI) are TGI and GI50 values, retold here.

Test systems include DU-145 prostate; TK-10 renal; HS 578T breast; HCT-15 colon; A498 renal; HOP-62 NSCLC; NCI-H460 lung; ACHN renal.
Holding throughout (assay): DTP human tumour cell line panel, 48 h

Several values for one entry are separate records, joined by “and”; a condition that tells them apart may be missing. Equal entries are not always repeated.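 Growth conditions: 96-well plates. Treatment: test compound, 48 hours, 5 concentrations. Analysis: linear interpolation between bracketing concentrations; unreached endpoints set to highest concentration. GI50 marks 50% less growth. At the TGI there is no net growth.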

Turning to `O=C1CSC(=S)N1/N=C/c1ccc(Cl)c([N+](=O)[O-])c1`, the TGI in the test on DU-145 prostate was above 100 µM; in the test on TK-10 renal it was above 100 µM; in the test with HS 578T breast it was above 100 µM; in the test on HCT-15 colon, 42.1 µM; in the test on A498 renal, above 100 µM; with HOP-62 NSCLC it was 86.3 µM. The results for the TGI with NCI-H460 lung and with ACHN renal were above 100 µM and 45.6 µM, respectively.
For the compound `CCOC(=O)C(=[N+]=[N-])C(=O)CN1C(=O)c2ccccc2C1=O`, the TGI with DU-145 prostate, in the test with TK-10 renal, with HS 578T breast, in the test with HCT-15 colon, with A498 renal and with HOP-62 NSCLC was above 100 µM in each case. Further, the TGI in the test on NCI-H460 lung and in the test with ACHN renal was above 100 µM in each case.
As to `Br[Se]c1ccccn1`, the TGI in the test with DU-145 prostate amounted to 30.8 µM; in the test with TK-10 renal, 34.5 µM; in the test on HS 578T breast, 40.3 µM; in the test with HCT-15 colon, 38.4 µM; in the test with A498 renal, 34 µM; in the test on HOP-62 NSCLC, 12.2 µM. In addition, the TGI was 42 µM in the test with NCI-H460 lung and 29.9 µM in the test on ACHN renal.
For the compound `Fc1cc(-c2nnc3n2N=C(c2ccc(Cl)cc2)CS3)c(Cl)cc1Cl`, the GI50 in the test with DU-145 prostate is 6.47 µM; in the test on TK-10 renal, 3.09 µM; in the test on HS 578T breast, 22.7 µM; in the test with HCT-15 colon it was 4.82 µM; in the test on A498 renal it was 21 µM; in the test on HOP-62 NSCLC, 20.1 µM. Further, the GI50 in the test on NCI-H460 lung is 18.2 µM; in the test with ACHN renal, 3.22 µM. For the same compound, the TGI in the test with DU-145 prostate amounted to 17.1 µM; in the test on TK-10 renal it was 11.2 µM; in the test with HS 578T breast, 51.5 µM; with HCT-15 colon, 13.8 µM; with A498 renal it was 42.4 µM; in the test with HOP-62 NSCLC, 36.4 µM. Moreover, the total growth inhibition concentration (TGI) with NCI-H460 lung stood at 37.4 µM; with ACHN renal it was 9.58 µM.
In the case of `COc1cc(-c2nn(-c3cccc(NC(=O)c4ccccc4)c3)cc2-c2ccncc2)ccc1Cl`, the GI50 was 0.626 µM in the test on DU-145 prostate; 4.12 µM with TK-10 renal; 0.87 µM with HS 578T breast; 0.579 µM in the test with HCT-15 colon; 0.197 µM in the test on A498 renal; 2.49 µM in the test with HOP-62 NSCLC. For the same compound, the GI50 in the test with NCI-H460 lung is 0.366 µM; in the test on ACHN renal it was 0.72 µM. Besides, the TGI is 27.1 µM with DU-145 prostate; above 83.8 µM in the test with TK-10 renal; above 40.9 µM in the test on HS 578T breast; above 100 µM in the test with HCT-15 colon; 1.35 µM with A498 renal; above 100 µM with HOP-62 NSCLC. In addition, the TGI with NCI-H460 lung was above 33.2 µM; with ACHN renal it was above 100 µM.
For `C=C1C[C@H](O)[C@H](Br)C(C)(C)[C@@]12CCC(C)=C(Cl)C2`, the GI50 was 0.276 µM with DU-145 prostate; 0.373 µM in the test on TK-10 renal; 0.289 µM in the test with HS 578T breast; 0.269 µM in the test on HCT-15 colon; 0.838 µM in the test on A498 renal; 0.377 µM in the test on HOP-62 NSCLC. Also, the results for the GI50 in the test on NCI-H460 lung and with ACHN renal were 0.263 µM and 0.369 µM, respectively. For the same compound, the total growth inhibition concentration (TGI) came to 3.25 µM in the test on DU-145 prostate; 2.89 µM with TK-10 renal; 2.98 µM with HS 578T breast; 1.27 µM with HCT-15 colon; 4.04 µM in the test on A498 renal; 4.92 µM in the test with HOP-62 NSCLC. In addition, the figures for the TGI with NCI-H460 lung and in the test on ACHN renal were 1.61 µM and 10.7 µM, respectively.
As for `COc1ccc(Cn2c(Br)c3c(c2Br)-c2nc(N)sc2CC3)cc1`, the GI50 in the test with DU-145 prostate is 6.13 µM; with TK-10 renal it was 3.69 µM; in the test on HS 578T breast it was 5.61 µM; in the test with HCT-15 colon it was 2.67 µM; with A498 renal, 4.66 µM; in the test on HOP-62 NSCLC it was 6.55 µM. The GI50 was 3.88 µM with NCI-H460 lung and 3.22 µM in the test on ACHN renal. The TGI in the test on DU-145 prostate was 39.6 µM; with TK-10 renal, 12.7 µM; in the test with HS 578T breast, above 100 µM; in the test on HCT-15 colon, 20.2 µM; with A498 renal, 17.3 µM; in the test on HOP-62 NSCLC, 20.5 µM. In addition, the total growth inhibition concentration (TGI) in the test with NCI-H460 lung was found to be 17.3 µM; in the test on ACHN renal it was 12 µM.
Turning to `C=CC(=O)Nc1cc(Nc2nccc(-c3cn(C)c4ccccc34)n2)c(OC)cc1N(C)CCN(C)C`, the GI50 is 1.76 µM and 1.33 µM with DU-145 prostate; 0.0615 µM and 0.0824 µM in the test with TK-10 renal; 3.32 µM and 1.89 µM in the test with HS 578T breast; 1.61 µM and 1.42 µM with HCT-15 colon; 1.11 µM and 1.48 µM in the test on A498 renal; 4.07 µM and 3.58 µM in the test with HOP-62 NSCLC. Moreover, the GI50 is 2.18 µM and 2.14 µM in the test with NCI-H460 lung; 0.272 µM and 0.479 µM in the test with ACHN renal. Further, the TGI was 12 µM and > 10 µM in the test with DU-145 prostate; 15.5 µM and 2.02 µM in the test with TK-10 renal; 16 µM and 9.69 µM in the test on HS 578T breast; 3.69 µM and 3.27 µM in the test with HCT-15 colon; 3.25 µM and 4.12 µM in the test on A498 renal; 18.3 µM and > 10 µM with HOP-62 NSCLC. The TGI with NCI-H460 lung is 5.15 µM and 6.09 µM; in the test with ACHN renal, 1.95 µM and 1.88 µM.
For `C/C=C/[C@@H]1O[C@@H]2COC(=O)C2=C[C@@H]1O`, the GI50 in the test with DU-145 prostate was 5.03 µM; with TK-10 renal, 6.43 µM; in the test with HS 578T breast, 23.4 µM; with HCT-15 colon, 16.9 µM; with HOP-62 NSCLC, 23.5 µM; in the test on NCI-H460 lung, above 57.7 µM. Also, the GI50 with ACHN renal was 3.58 µM. Further, the TGI in the test with DU-145 prostate is 18.8 µM; in the test with TK-10 renal it was 20.5 µM; in the test on HS 578T breast, 58.2 µM; in the test on HCT-15 colon it was 39.8 µM; in the test with HOP-62 NSCLC it was 43 µM; with NCI-H460 lung, above 100 µM. This compound registered a TGI with ACHN renal of 13.4 µM.
With `Cn1cc(-c2cc3c(N4CCN(c5ncc([C@@](C)(N)c6ccc(F)cc6)cn5)CC4)ncnn3c2)cn1`, the GI50 with DU-145 prostate was above 100 µM; in the test with HS 578T breast, 1.82 µM; in the test on HCT-15 colon, 3.62 µM; in the test with A498 renal it was 6.24 µM; in the test with HOP-62 NSCLC, 6.31 µM; with NCI-H460 lung it was 4.41 µM. Moreover, in the test on ACHN renal, the GI50 was 3.26 µM. Further, the TGI with DU-145 prostate, in the test on HS 578T breast, with HCT-15 colon, in the test with A498 renal, in the test on HOP-62 NSCLC and in the test on NCI-H460 lung was above 100 µM throughout. This compound also had a TGI with ACHN renal above 100 µM.
Regarding `CC(=O)OCc1ccc2c(c1)C(O)NC(=O)O2` (centres undefined), the TGI with DU-145 prostate, with TK-10 renal, with HS 578T breast, with HCT-15 colon, in the test on HOP-62 NSCLC and with NCI-H460 lung was above 100 µM throughout. Also, the TGI in the test on ACHN renal was above 100 µM.

Broadly, the TGI is the concentration at which net growth stops. Read a high TGI as lower sensitivity of the cells. For orientation: GI50 means the concentration that inhibits growth by half.
